# Assay results as given in patent publication US20120122991A1, “METHOD FOR TREATING CANCER BY INCREASING AMP-ACTIVATED KINASE ACTIVITY” (Dana-Farber Cancer Institute, Inc., priority 2003, published 2012).
# Assays:
# AMPK = experiment: Immunoblot of phospho-Thr172 AMPK and phospho-Ser79 ACC in MEFs; format: cell-based, mouse; conditions: 2 mM AICAR for 2 h
# Experimental: FIG. 3a: Littermate MEFs of the indicated LKB1 genotypes were left untreated (NT) or treated with 0.1 mM H2O2 for 20 mins or 2 mM AICAR for 2 h. Total cell extracts were immunoblotted for phospho-Thr 172 AMPK or phospho Ser79 ACC, as well as for total AMPK and LKB1. FIG. 3b: An immortalized LKB1-deficient MEF cell line was reconstituted with human (hu) or mouse (ms) WT or KD LKB1 expressing retroviruses. The asterisk (*) represents a background band that serves as a loading control.
# (§1) FIG. 6A: Subconfluent cycling littermate-matched primary MEFs of the indicated genotype were left untreated (NT) or were treated with 2 mM AICAR for 2 h. Total cell extracts were immunoblotted for phospho-Thr172 AMPK (P-AMPK), phospho Ser79 ACC (P-ACC), phospho-Thr389 S6K1 (P-S6K1), phospho-Ser9 GSK-3b (P-GSK-3), and phospho-Ser235/236 S6 ribosomal protein (P-S6). FIG. 6B: An immortalized LKB1−/− MEF cell line was reconstituted with vector (v), wild-type (wt) or kinase-dead (kd) human LKB1-expressing retroviruses. Cells were treated as in FIG. 6A. eIF4E was used as a loading control. *represents a cross-reactive band with the anti-LKB1 antisera as characterized previously (Shaw et al. (2004) Proc. Natl. Acad. Sci. USA 101, 3329-3335). FIG. 6C: Endogenous 5′ cap complexes were isolated from LKB1 primary MEFs as in A. 10% of the total cell lysate is shown in the left panels; cap complexes purified on 7-methyl sepharose are shown in right panels. Each were immunoblotted with total 4E-BP1 and eIF4E antibodies. eIF4E is shown as a loading control. FIG. 6D: Hela cells (which are LKB1-deficient) were transiently transfected with vector, FLAG-tagged wild-type, or kinase-dead LKB1 along with an HA-tagged S6K1 or an HA-tagged 4E-BP1 construct, then treated where indicated with 2 mM AICAR for 2 h. S6K1-immunoprecipitates were immunoblotted for activating phosphorylation of S6K1 as before, as well with anti-HA to control for levels. Lysates were immunoblotted with anti-FLAG to detect levels of LKB1 and with anti-HA to detect phosphorylation induced changes in 4E-BP1 mobility on SDS-PAGE.
# Kinase Assays and Cellular Analysis: AMPK kinase activity was measured using the SAMS peptide as previously described (7). LKB1 phosphorylation of AMPK was carried out in kinase buffer (50 mM Tris pH 7.5, 10 mM MgCl2, 1 mM DTT, 100 μM ATP) for 20 mins at 30° C. For immunopreciptations of active LKB1 kinase, Flag-tagged LKB1 was co-transfected with an equimolar amount of STRAD expression plasmid into HT1080 cells and immunoprecipitated using M2-agarose (Sigma) 24 h post-transfection in NP40 lysis buffer26. Before kinase assays, immunoprecipitated LKB1 was washed 3× in lysis buffer then 2× in kinase buffer. Soluble MBP-AMPK was added at 5 μg per kinase reaction. […]
# mTOR signaling = experiment: Immunoblot and cap-complex analysis of mTOR signaling (S6K1, S6, 4E-BP1, GSK-3) in MEFs; format: cell-based, mouse
# Experimental: as §1
# FIGS. 8A and 8B: Littermate matched LKB1- or TSC2-deficient MEFs were compared to wild-type MEFs in their response to a number of stress stimuli known to inhibit mTOR signaling (wild-type cells denoted +, −/− cells simply−). mTOR signaling was examined by immunoblotting for phospho-S6 as in FIG. 6. Activation of Akt and Erk were examined using their specific activation state phospho-specific antibodies (Ser473 for Akt, Thr202/Tyr204 for Erk). As before, eIF4E is used as a loading control. All MEFs were serum-deprived in DMEM alone for 24 h. Indicated samples were then placed in fresh media containing 10% serum, with or without […] rapamycin or 2 mM AICAR, all for 90 min. Amino acid deprivation (-AA) was performed by placing the serum-starved cells into D-PBS with 10% dialyzed serum for 90 min. […] Cells were placed in normal media, glucose free media with 10% dialyzed serum, or glucose-free media with 10% dialyzed serum containing 20 nM rapamycin for 6 or 24 h as indicated. LKB1 genotype indicated at bottom. eIF4E is used as a loading control. FIG. 8D: Cells were treated for 24 h as in FIG. 8C, and viability was quantified by MTT assays performed in triplicate on cells of the indicated genotypes. Cell death is expressed as a percentage of the untreated controls.
# Cells were cultured and retrovirally infected as previously described (Shaw et al. (2004), Proc. Natl. Acad. Sci. USA 101:3329-3335). […] Cells were serum-starved in DMEM without serum 14 h post-transfection, then 8 h later the media was replaced with fresh DMEM with 10% FBS or DMEM with 10% FBS and 2 mM AICAR. For the MEF experiments in FIG. 6: cells were plated at 1×10^6 cells/10 cm dish, then the next day the media was replaced with fresh DMEM with 10% FBS or DMEM with 10% FBS and 2 mM AICAR. For the MEF experiments in FIG. 8A,B: 1×10^6 cells of each genotype were plated and the next day serum-starved for 24 h. Cells were either lysed as such or their media replaced with fresh DMEM with 10% FBS, DMEM with 10% FBS and 2 mM AICAR, DMEM with 10% FBS and 20 nM rapamycin, or D-PBS with 10% dialyzed FBS for 90 mins.
compound,measurement,setting,value
"NC(=O)c1ncn([C@@H]2O[C@H](CO)[C@@H](O)[C@H]2O)c1N [AICAR, 5-aminoimidazole-4-carboxamide 1-β-D-ribofuranoside]",Thr172 phosphorylation of AMPK,AMPK; LKB1 null MEFs,complete loss of Thr172 phosphorylation
same,phosphorylation of ACC (Ser79),AMPK; LKB1 null MEFs,nearly abolished
same,AMPK activation,AMPK; Lkb1-deficient fibroblasts,severely attenuated
same,AMPK activation,AMPK; wild-type MEFs,activated
same,S6K1 activity,"mTOR signaling; Lkb1-/- MEFs, serum-starved 24 h, 10% serum with 2 mM AICAR for 90 min",failed to down-regulate S6K1 activity
same,hypophosphorylated 4E-BP1 in total cell lysates,"mTOR signaling; Lkb1-deficient cells, AICAR treatment",near absence of hypophosphorylated 4E-BP1
same,levels of active S6K1,"mTOR signaling; Lkb1-deficient fibroblasts, 2 mM AICAR for 2 h",remained high
same,growth factor signaling to GSK-3,"mTOR signaling; MEFs, 2 mM AICAR for 2 h",unaffected
same,S6K1 activity,"mTOR signaling; wild-type MEFs, 2 mM AICAR for 2 h",inhibited
same,level of hypophosphorylated 4E-BP1,"mTOR signaling; wild-type MEFs, AICAR treatment",significantly increases
same,4E-BP1 association with the cap complex,"mTOR signaling; wild-type MEFs, AICAR treatment, 7-methyl GTP sepharose",increased 4E-BP1 association with the cap complex
